Tests used:
[1] = system: non-small cell lung cancer (NSCLC); conditions: higher levels of DNA repair capacity; cited from earlier work
testicular cancer = conditions: strongly reduced DNA repair capacity; cited from earlier work
[2] = system: human DNA extracted from cells; assay: Relative fragmentation-induced Profile Deviation: Fpg treatment and Molecular Combing of DNA from cells exposed to H2O2; type: cell-based
Experimental: Construction of a DNA length reference profile of a healthy cellular population and comparison of the profile obtained from the same population after exposure to a genotoxic agent is performed. High resolution DNA length reference profiles are constructed by measuring the size of thousands of DNA molecules uniformly stretched on a combed slide.
In the case of damage generated at high frequency along the genome (for instance SSB, abasic sites, methylated, alkylated, oxidated bases, photoproducts), the conversion of most of the targeted lesions into DSB generates theoretically as much new DNA extremities as much lesions were present on the molecules. When comparing the length distribution profile of the damaged sample with the undamaged reference, a Profile Deviation (PD) associated to a specific damage appears. The amount of lesions generated by the genotoxic compound can then be estimated directly from the PD. […]
For direct visualization of stretched DNA, cover-slips were mounted with 20 μL of a Block-Aid (Invitrogen, ref. B-10710)-YOYO-1 iodide (Molecular Probes, code Y3601) mixture (10000:1 v/v) in order to counter-stain all stretched molecules. […] Length of the YOYO-1-stained DNA fibers were measured with internal software GVlab v0.4.6 (Genomic Vision S.A., Paris, France).

Row | Compound | survival after cisplatin treatment [1] | survival rate after cisplatin treatment (testicular cancer) | decay constants τ of exponential fit y=Ae^-x/τ of DNA size distribution as a function of H2O2 dose ([2]; 1, 5, 10 and 20 mM H2O2, 10 min, control excluded from linear fit) | length of stretched DNA strands (clustered oxidative damage) after Fpg treatment ([2]; cells incubated 10 min with 10 and 20 mM H2O2, compared to control sample)
1 | N.N.[Cl][Pt][Cl] [cisplatin] | low survival | 95% | – | –
2 | OO [H2O2] | – | – | decrease linearly | much shorter than in the control sample
